For orientation: inhibition means the change of the read-out against control, counted positive when it falls. A word on the IC50: it is the concentration needed to halve the response being measured.

Assay [1] deals with T1, Protein kinase C alpha type (Homo sapiens, UniProt P17252). In words: Displacement of [3H]PDBu from recombinant human PKCalpha C1 domain expressed in baculovirus infected insect Sf9 cells at 100 uM after 10 mins by liquid scintillation counting analysis relative to control.
Assay [2] concerns the target T2, Protein kinase C delta type (Homo sapiens, UniProt Q05655). In words: Displacement of [3H]PDBu from recombinant human PKCdelta C1 domain expressed in baculovirus infected insect Sf9 cells at 100 uM after 10 mins by liquid scintillation counting analysis relative to control.
Target sequence in this assay (Q05655 whole entry, looked up, the tested form may be a part): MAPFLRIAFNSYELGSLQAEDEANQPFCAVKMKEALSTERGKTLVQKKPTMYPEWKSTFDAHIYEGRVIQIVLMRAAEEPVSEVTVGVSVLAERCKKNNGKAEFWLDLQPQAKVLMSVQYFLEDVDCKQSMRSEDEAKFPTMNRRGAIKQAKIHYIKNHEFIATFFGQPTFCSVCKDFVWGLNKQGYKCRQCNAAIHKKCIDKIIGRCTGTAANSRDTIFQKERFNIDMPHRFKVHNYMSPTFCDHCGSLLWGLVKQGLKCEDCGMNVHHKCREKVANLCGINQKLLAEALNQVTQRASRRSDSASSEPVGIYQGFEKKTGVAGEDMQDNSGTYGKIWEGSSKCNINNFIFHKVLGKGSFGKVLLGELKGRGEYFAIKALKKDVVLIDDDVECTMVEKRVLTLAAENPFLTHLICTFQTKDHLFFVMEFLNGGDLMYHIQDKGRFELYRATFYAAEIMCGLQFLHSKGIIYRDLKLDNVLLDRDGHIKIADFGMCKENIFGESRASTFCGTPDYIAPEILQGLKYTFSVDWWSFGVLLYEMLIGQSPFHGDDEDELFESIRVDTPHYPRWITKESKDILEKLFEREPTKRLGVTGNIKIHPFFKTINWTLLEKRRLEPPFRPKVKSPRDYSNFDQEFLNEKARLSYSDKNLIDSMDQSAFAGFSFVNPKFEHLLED
Assay [3] has as its target T1, Protein kinase C alpha type. Put plainly: Displacement of [3H]PDBu from recombinant human PKCalpha C1 domain expressed in baculovirus infected insect Sf9 cells assessed as residual radiolabeled binding at 100 uM after 10 mins by liquid scintillation counting analysis relative to control. (In general: Loss of bound radioactivity is the signal in a displacement assay; it reports binding, not function.)

The target of assay [4] is T2, Protein kinase C delta type. In words: Displacement of [3H]PDBu from recombinant human PKCdelta C1 domain expressed in baculovirus infected insect Sf9 cells assessed as residual radiolabeled binding at 100 uM after 10 mins by liquid scintillation counting analysis relative to control.
Target sequence in this assay (Q05655 whole entry, looked up, the tested form may be a part): as the sequence (Q05655 whole entry, looked up, the tested form may be a part) above
Assay [5] has as its target T1, Protein kinase C alpha type. Put plainly: Displacement of [3H]PDBu from recombinant human PKCalpha C1 domain expressed in baculovirus infected insect Sf9 cells after 10 mins by liquid scintillation counting analysis.
The target in assay [6] is T2, Protein kinase C delta type. Put plainly: Displacement of [3H]PDBu from recombinant human PKCdelta C1 domain expressed in baculovirus infected insect Sf9 cells after 10 mins by liquid scintillation counting analysis.

Turning to `O=C(Cc1ccccc1)OCC(CO)c1ccc(OCc2ccccc2)cc1` (single isomer, unassigned; (-)), the inhibition in assay [1] and in assay [2] was 26.3% throughout.
Turning to `O=C(CC(CO)c1ccc(OCc2ccccc2)cc1)N1CCOCC1` (stereo not drawn), the Activity in assay [3] worked out at 107%.
The same measure, in the same setting: next, `O=C(CC(CO)c1cccc(OCc2ccccc2)c1)N1CCOCC1` (stereo not drawn): 99.7%; `CN(Cc1ccccc1)C(=O)CC(CO)c1ccc(OCc2ccccc2)cc1` (stereo not drawn): 80.6%.
On to `O=C(Cc1ccccc1)OCC(CO)c1ccc(OCc2ccccc2)cc1` (racemic) [listing 1 of 2 here], for which, in assay [3], the Activity was found to be 51.3%. Moreover, in assay [4], the Residual [3H]PDBu binding came out at 34.8%. Further, the inhibition entry in assay [5] is “Dose-dependent effect”.
In the case of `O=C(CC(CO)c1ccc(OCc2ccccc2)cc1)OCc1ccccc1` (stereo not drawn), the Activity in assay [3] was 73.9%. In addition, the Residual [3H]PDBu binding in assay [4] was 61.6%. For the same compound, the inhibition result in assay [5] and in assay [6] was “Dose-dependent effect” throughout.
On to `CC(C)(C)C(=O)OCC(CO)c1ccc(OCc2ccccc2)cc1` (single isomer, unassigned), for which the inhibition in assay [1] and in assay [2] was 36.3% in each case.
For `CC(C)(C)C(=O)OCC(CO)c1ccc(OCc2ccccc2)cc1` (single isomer, unassigned; (+)), the inhibition in assay [1] and in assay [2] was 34.6% each time.
Regarding `CC(C)(C)C(=O)OCC(CO)c1ccc(OCc2ccccc2)cc1` (racemic) [listing 1 of 2 here], the Activity in assay [3] came out at 41.6%. The Residual [3H]PDBu binding in assay [4] is 29.3%.
As to `O=C(Cc1ccccc1)OCC(CO)c1ccc(OCc2ccccc2)cc1` (racemic) [listing 2 of 2 here], the results for the IC50 in assay [5] and in assay [6] were 73.9 µM and 39.9 µM, respectively.
`CCN(CC)C(=O)CC(CO)c1cccc(OCc2ccccc2)c1` (stereo not drawn): the Activity in assay [3] turned out to be 90%.
Same read-out and setting: as for `CCN(CC)C(=O)CC(CO)c1ccc(-c2ccccc2)cc1` (stereo not drawn), the figure is 84.4%.
With `O=C(CC(CO)c1cccc(OCc2ccccc2)c1)OCc1ccccc1` (stereo not drawn), the Activity in assay [3] worked out at 67.4%. Besides, in assay [4], the Residual [3H]PDBu binding came to 52.5%. Moreover, the inhibition result in assay [5] and in assay [6] was “Dose-dependent effect” each time.
Regarding `CCN(CC)C(=O)CC(CO)c1ccc(OCc2ccccc2)cc1` (stereo not drawn), the Activity in assay [3] stood at 100%.
The same measure, in the same setting: as for `CN(Cc1ccccc1)C(=O)CC(CO)c1ccc(-c2ccccc2)cc1` (stereo not drawn), the figure is 76.1%.
On to `O=C(CC(CO)c1ccc(-c2ccccc2)cc1)N1CCOCC1` (stereo not drawn), for which the Activity in assay [3] turned out to be 86.6%.
Consider `O=C(CC(CO)c1ccc(-c2ccccc2)cc1)OCc1ccccc1` (stereo not drawn), for which, in assay [3], the Activity turned out to be 64.4%. Besides, in assay [4], the Residual [3H]PDBu binding is 56.7%. Also, the inhibition result in assay [5] and in assay [6] was “Dose-dependent effect” throughout.
For the compound `O=C(Cc1ccccc1)OCC(CO)c1ccc(OCc2ccccc2)cc1` (single isomer, unassigned), the inhibition in assay [1] and in assay [2] was 27.3% in each case.
In the case of `CC(C)(C)C(=O)OCC(CO)c1ccc(OCc2ccccc2)cc1` (racemic) [listing 2 of 2 here], the IC50 in assay [5] came to 37.5 µM; in assay [6], 33.2 µM.
Take `CN(Cc1ccccc1)C(=O)CC(CO)c1cccc(OCc2ccccc2)c1` (stereo not drawn): the Activity in assay [3] turned out to be 72.4%.

(Values after ChEMBL document CHEMBL3632532, “Beyond the affinity for protein kinase C: exploring 2-phenyl-3-hydroxypropyl pivalate analogues as C1 domain-targeting ligands” (Medchemcomm, 2015).)
